pKd: −log10 of the molar value.
How the values were obtained:
iNKT cell clone = test: Cytokine release from iNKT cell clone stimulated with analog-pulsed C1R-human CD1d cells; format: cell-based; details: 24 h, titration
Method: FIG. 9 Inositol-based α-GalCer derivatives are functional in vitro. Human monocyte-derived DC were pulsed with 150 ng of different inositol analogs and co-cultured with iNKT cells for 24 h. […] Numbers indicate the mean fluorescence intensity of the histogram gated on CD11c^+ cells. 6-Deoxy and 6-Sulfono-myo-inositolceramide induce significant (B) IL-12p40 and (C) IFN-γ production by DC and iNKT cells respectively in the supernatants of co-cultured DC and iNKT cells. […] Release of (D) IFN-g and (E) IL-4 from iNKT cells after 24 h in culture with C1R-human CD1d cells pulsed with α-GalCer, 6-Deoxy- or 6-Sulfono-myo-inositolceramide.
The three inositol compounds were titrated on C1R cells expressing human CD1d and used to stimulate an iNKT cell clone.

[1] = target: T1, human invariant Vα24^+/Vβ11^+ TCR binding to hCD1d-lipid complex (Homo sapiens, UniProt P15813); test: Surface plasmon resonance (Biacore) of soluble iNKT TCR binding to hCD1d monomers loaded with analogs; details: for pKd: equilibrium binding, read-out: Kd of the TCR binding to the monomer; for koff: kinetic measurement, read-out: rate of dissociation (Koff) between the TCR and the monomer
T1 construct: soluble human CD1d molecules; made in house
Method: Affinity and kinetics of iNKT TCR binding to hCD1d complexed with α-GalCer or OCH. Increasing concentrations from 0.4 μM to 194 μM (two-fold dilution) of iNKT TCR were injected for 5 seconds over the indicated hCD1d-GSL complexes. The binding responses of 5 concentrations are shown superimposed. The panels on the right show binding response at equilibrium.
The affinities of a soluble NKT cell TCR for human CD1d molecules refolded with different analogs of α-GalCer were measured. Equilibrium binding and kinetic measurements respectively were made for α-GalCer (A and B), threitolceramide (C and D), 4S-threitolceramide (E and F), 4R-threitolceramide (G and H). The Kd values (μM) were calculated from equilibrium binding. The Kon values shown were calculated from Koff and Kd.
We then assessed whether the length of the acyl and sphingosine chains could affect the affinity of iNKT TCR binding to glycolipid-CD1d complex. We refolded Vα24 and Vβ11 chains of the iNKT TCR as previously described (Gadola, Koch et al, J Exp Med, 2006, 203; 699-710) and used the purified and refolded iNKT TCR in surface plasmon resonance studies against immobilized biotinylated CD1d monomers loaded with either α-GalCer or OCH.
To characterize the affinity of analogs of α-GalCer, biotinylated hCD1d monomers were generated using previously described protocols (Karadimitris, Gadola et al, Proc Natl Acad Sci USA, 2001, 98; 3294-8) bound to the different analogs. Surface plasmon resonance (Biacore) analysis was performed using a soluble disulphide-linked human invariant Vα24^+/Vβ11^+ TCR (Gadola, Koch et al, J Exp Med, 2006, 203; 699-710) to measure the equilibrium dissociation constants (Kd) of binding of the TCR to different monomers (FIG. 3).

human DC = test: DC maturation in co-culture of human DC and iNKT cells (flow cytometry CD83, CD86, CD38); format: cell-based; details: data not shown
Method: Different analogs of α-GalCer as indicated or LPS were added to co-cultures of human DC and iNKT cells. (A) Maturation of the DC was assessed after 40 h, gating on CD11c positive cells. Histograms indicate the CD83 and CD86 profiles of DC from different treatments; the percentages indicate the percentage of CD83hi mature DC and the numbers in parenthesis, the mean fluorescence intensity of the population contained within the labeled gate. DC and iNKT cells were co-cultured in the presence of different analogs of α-GalCer for 24 hours. Supernatants were analyzed using ELISA for the presence of (B) IL-12p40 released by the DC and (C) IFN-γ from the iNKT cells. […] Cells were co-cultured in the presence of the indicated concentration of analog and the percentages of DC with increased CD83/CD80 are shown. […] Viability of α-GalCer or analog-pulsed DC was assessed after 40 h co-culture in the presence of iNKT cells by flow cytometry. Cells were stained with propidium iodide and the percentage of live CD11c gated cells remaining in the culture are shown.
Human monocyte-derived DC were pulsed with 150 ng of different inositol analogs and co-cultured with iNKT cells for 24 h. […] Numbers indicate the mean fluorescence intensity of the histogram gated on CD11c^+ cells.
Immature human DC were cultured in the presence of a human iNKT cell clone with or without analogs or vehicle at different concentrations.
To compare the functions of high affinity α-GalCer, intermediate affinity threitolceramide with the known, low affinity analog OCH, the three compounds were titrated onto DC and used to present to iNKT cells. Maturation of DC and DC viability were examined after 48 h.

| Compound | IFN-γ release from iNKT cells (iNKT cell clone) | IL-4 release from iNKT cells (iNKT cell clone) | pKd [1] | koff [1] [s⁻¹] | DC maturation and cytokine production from iNKT cells (first test) (human DC) |
| --- | --- | --- | --- | --- | --- |
| D-myo-Inositol Ceramide [Compound 12] | significant levels of both cytokines | significant levels of both cytokines | – | – | – |
| CCCCCCCCCCCCCCCCCCCCCCCCCC(=O)N[C@@H](COC[C@H](O)[C@@H](O)[C@H](O)c1ccccc1)[C@H](O)[C@H](O)CCCCCCCCCCCCCC [Compound 15, 4-(R)-Phenyl Threitol Ceramide] | – | – | 5.37 | 0.506 | – |
| D-myo-Inositol Ceramide Salt [Compound 13] | little or no IFN-γ release | detectable IL-4 was produced when higher concentrations of the compound were used | – | – | – |
| CCCCCCCCCCCCCCCCCCCCCCCCCC(=O)N[C@@H](COC[C@H](O)[C@@H](O)[C@@H](O)c1ccccc1)[C@H](O)[C@H](O)CCCCCCCCCCCCCC [Compound 14, 4-(S)-Phenyl Threitol Ceramide] | – | – | 5.42 | 0.65 | – |
| Inositol Ceramide [Compound 10] | little or no IFN-γ and IL-4 | little or no IFN-γ and IL-4 | – | – | induced detectable DC maturation and cytokine production from iNKT cells |

Reference: patent publication US8039670B2, “Analogs of alpha galactosyceramide and uses thereof” (Ludwig Institute for Cancer Research, priority 2005, dated 2011)
